The values below come from US20240425523A1, “Compounds for the Degradation of EGFR Kinase” (Beigene Switzerland GMBH, priority 2023, published 2024).

The term DC50 denotes the concentration giving 50% degradation. The term Dmax denotes the greatest extent of degradation seen. The IC50 is the concentration needed to halve the response being measured. Higher therefore signals weaker potency in that assay.

Format in all cases: cell-based
The target in test [1] is T1, EGFR-L858R/C797S (H1975-clone #8 cells) (Homo sapiens, UniProt P00533, C797S/L858R).
T1 construct: expressed in transfected cells; host or cells: H1975 (endogenous EGFR knocked out, clone #8)
In words: Cell degradation of EGFR, HTRF assay, H1975-clone#8 (L858R/C797S) cells. Conditions: 16 h treatment; for DC50: EGFR degradation; for Dmax: maximum percentage of degradation.

For test [2], the target named is p-EGFR Del19/C797S (H1975-clone #23 cells) (Homo sapiens, UniProt P00533). Put plainly: Cell p-EGFR inhibition assay, HTRF, H1975-clone#23 (DEL19/C797S) cells. The settings on record: 16 h treatment; for Imax (%): maximum percentage of pEGFR inhibition; for IC50: pEGFR inhibition. In short, it runs like this:
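Phospho-EGFR read by overnight HTRF on lysates, normalized to DMSO-treated high control; IC50, Hill slope and Imax fitted. Compounds were applied for 16 h (10 uM top, 5-fold steps, 8 doses) to an H1975 single clone carrying only exogenous Del19/C797S EGFR after sgRNA knockout of endogenous copies.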

In test [3] the target is T2, p-EGFR L858R (BaF3-L858R cells) (Homo sapiens, UniProt P00533, L858R).
T2 construct: host or cells: BaF3
In words: Cell p-EGFR inhibition assay, HTRF, BaF3-L858R cells. The settings on record: 16 h treatment; for Imax (%): maximum percentage of pEGFR inhibition; for IC50: pEGFR inhibition. An outline of the steps: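 BaF3-L858R cells treated 16 h at 37 °C, 5% CO2 with compound from 10 uM top, 5-fold dilutions, 8 doses, in 0.1% DMSO medium. Lysates read overnight by HTRF p-EGFR antibodies; IC50 fitted to four-parameter curve against DMSO high control.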
Background: In TR-FRET formats the signal depends on donor and acceptor labels being close together.

The target of test [4] is T3, EGFR L858R (BaF3-L858R cells) (Homo sapiens, UniProt P00533, L858R).
T3 construct: host or cells: BaF3
In words: Cell degradation of EGFR, HTRF assay, BaF3-L858R cells. Conditions: 16 h treatment; for DC50: EGFR degradation; for Dmax: maximum percentage of degradation. In short, it runs like this:
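BaF3-L858R cells treated 16 h at 37° C, 5% CO2 with compound (top 10 uM final, 5-fold, 8 doses, 0.1% DMSO). DC50 from four-parameter fit; Dmax is maximum percent degradation.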

In test [1], `Cc1cc2cc(n1)-c1cnn(C)c1OC[C@H]1CCC(C1)CN1/C(=N/C2=O)Nc2ccc(N3CCN([C@H]4CCN(c5ccc(C6CCC(=O)NC6=O)nc5C)C[C@@H]4F)CC3)cc21` (stereo partly drawn) [Example 76, 3-(5-((3S,4S)-4-(4-((7^1R,7^3S,E)-1^1,2^6-dimethyl-3-oxo-5^2,5^3-dihydro-1^1H,5^1H-9-oxa-4-aza-5(2,1)-benzo[d]imidazola-2(2,4)-pyridina-1(4,5)-pyrazola-7(1,3)-cyclopentanacyclononaphane-5^6-yl)piperazin-1-yl)-3-fluoropiperidin-1-yl)-6-methylpyridin-2-yl)piperidine-2,6-dione] had a DC50 of 3.87 nM and a Dmax of 79.4%. Further, in test [2], the “Imax (%)” value came to 101% and half-maximal inhibition (IC50) was put at 0.7 nM. In test [3], the “Imax (%)” value is given as 94.9% and the IC50 turned out to be 7.8 nM. In test [4], the DC50 is 3.23 nM and the Dmax turned out to be 84.8%.
In test [1], `COC[C@@H]1CN(c2ccc3c(c2)N2CC4CC[C@H](COc5c(c(C)nn5C)-c5cc(cc(C)n5)C(=O)/N=C/2N3)C4)CCN1C1CCN(c2cc(F)c([C@H]3CCC(=O)NC3=O)c(F)c2)CC1` [Example 80, (R)-3-(2,6-difluoro-4-(4-((S)-2-(methoxymethyl)-4-((7R,7^3S,E)-1^1,1^3,2^6-trimethyl-3-oxo-5^2,5^3-dihydro-1^1H,5^1H-9-oxa-4-aza-5(2,1)-benzo[d]imidazola-2(2,4)-pyridina-1(4,5)-pyrazola-7(1,3)-cyclopentanacyclononaphane-5^6-yl)piperazin-1-yl)piperidin-1-yl)phenyl)piperidine-2,6-dione] had a DC50 of 5.24 nM and a Dmax of 82.4%. Further, in test [2], the “Imax (%)” value stood at 99.9% and the 50% inhibitory concentration (IC50) is 1.6 nM. In test [3], the “Imax (%)” value was 91.7% and the IC50 came to 3.8 nM. For the same compound, in test [4], the 50% degradation concentration (DC50) was 1.73 nM and the Dmax stood at 88.1%.
On to `Cc1cc2cc(n1)-c1cnn(C)c1OC[C@H]1CCC(C1)CN1/C(=N/C2=O)Nc2ccc(N3CCN([C@@H]4CCN(c5ccc(C6CCC(=O)NC6=O)nc5C)CC4(F)F)CC3)cc21` (stereo partly drawn) [Example 105, 3-(5-((R)-4-(4-((7^1R,7^3S,E)-1^1,2^6-dimethyl-3-oxo-5^2,5^3-dihydro-1^1H,5^1H-9-oxa-4-aza-5(2,1)-benzo[d]imidazola-2(2,4)-pyridina-1(4,5)-pyrazola-7(1,3)-cyclopentanacyclononaphane-5^6-yl)piperazin-1-yl)-3,3-difluoropiperidin-1-yl)-6-methylpyridin-2-yl)piperidine-2,6-dione], for which, in test [1], it took 4.09 nM to reach half-maximal degradation (DC50) and the Dmax was 85.2%. In addition, in test [2], the “Imax (%)” value is recorded as 100.1% and the IC50 was determined as 0.7 nM. Also, in test [3], the “Imax (%)” value is on record as 93.9% and the midpoint of inhibition, the IC50, lay at 10.1 nM. In test [4], this compound came in with a DC50 of 3.68 nM and a Dmax of 82.7%.
Consider `Cc1cc2cc(n1)-c1c(C)nn(C)c1OC[C@H]1CC[C@H](C1)CN1/C(=N/C2=O)Nc2ccc(N(C)C3CCN(C4CCN(c5cc(F)c([C@H]6CCC(=O)NC6=O)c(F)c5)CC4)CC3)cc21` [Example 143, (R)-3-(2,6-difluoro-4-(4-(methyl((7^1R,7^3S,E)-1^1,1^3,2^6-trimethyl-3-oxo-5^2,5^3-dihydro-1^1H,5^1H-9-oxa-4-aza-5(2,1)-benzo[d]imidazola-2(2,4)-pyridina-1(4,5)-pyrazola-7(1,3)-cyclopentanacyclononaphane-5^6-yl)amino)-[1,4′-bipiperidin]-1-yl)phenyl)piperidine-2,6-dione], for which the 50% degradation concentration (DC50) stood at 1.51 nM in test [1] and 5.23 nM in test [4]. Besides, the Dmax in test [1] turned out to be 82%; in test [4] it was 74.3%. Besides, the figures for the “Imax (%)” value in test [2] and in test [3] were 101.28% and 98.2%, respectively. The IC50 in test [2] is 1.15 nM; in test [3], 7.8 nM.
Regarding `COC[C@H]1CN(c2ccc3c(c2)N2C[C@@H]4CC[C@H](COc5c(c(C)nn5C)-c5cc(cc(Cl)n5)C(=O)/N=C/2N3)C4)CCN1C1CCN(c2cc(F)c([C@H]3CCC(=O)NC3=O)c(F)c2)CC1` [Example 176, (R)-3-(4-(4-((R)-4-((7^1R,7^3S,E)-2^6-chloro-1^1,1^3-dimethyl-3-oxo-5^2,5^3-dihydro-1^1H,5^1H-9-oxa-4-aza-5(2,1)-benzo[d]imidazola-2(2,4)-pyridina-1(4,5)-pyrazola-7(1,3)-cyclopentanacyclononaphane-5^6-yl)-2-(methoxymethyl)piperazin-1-yl)piperidin-1-yl)-2,6-difluorophenyl)piperidine-2,6-dione], in test [1], it took 10.7 nM to reach half-maximal degradation (DC50) and the Dmax is 85.4%. In test [2], the “Imax (%)” value is 101.78% and the IC50 is 3.6 nM. Besides, in test [3], the “Imax (%)” value worked out at 94.16% and the IC50 is 15.2 nM. Also, in test [4], it took 8.27 nM to reach half-maximal degradation (DC50) and the greatest degradation seen (Dmax) worked out at 89%.
Turning to `Cc1cc2cc(n1)-c1c(C)nn(C)c1OC[C@H]1CC[C@H](C1)CN1/C(=N/C2=O)Nc2ccc(N3CCN(CCC4CCN(c5cc(F)c([C@H]6CCC(=O)NC6=O)c(F)c5)CC4)CC3)cc21` [Example 183, (R)-3-(2,6-difluoro-4-(4-(2-(4-((7^1R,7^3S,E)-1^1,1^3,2^6-trimethyl-3-oxo-5^2,5^3-dihydro-1^1H,5^1H-9-oxa-4-aza-5(2,1)-benzo[d]imidazola-2(2,4)-pyridina-1(4,5)-pyrazola-7(1,3)-cyclopentanacyclononaphane-5^6-yl)piperazin-1-yl)ethyl)piperidin-1-yl)phenyl)piperidine-2,6-dione], the DC50 in test [1] turned out to be 5.83 nM; in test [4], 5.3 nM. Besides, the Dmax in test [1] worked out at 91.2%; in test [4], 91.6%. The “Imax (%)” value in test [2] turned out to be 99.41%; in test [3] it was 98.21%. Further, the half-maximal inhibitory concentration (IC50) was determined as 7.32 nM in test [2] and 5.32 nM in test [3].
In test [1], `Cc1cc2cc(n1)-c1cnn(C)c1OC[C@H]1CCC(C1)CN1/C(=N/C2=O)Nc2ccc(N3CCN(C4CCN(c5ccc(NC6CCC(=O)NC6=O)cc5C)CC4)CC3)cc21` (stereo partly drawn) [Example 123, 3-((4-(4-(4-((7^1R,7^3S,E)-1^1,2^6-dimethyl-3-oxo-5^2,5^3-dihydro-1^1H,5^1H-9-oxa-4-aza-5(2,1)-benzo[d]imidazola-2(2,4)-pyridina-1(4,5)-pyrazola-7(1,3)-cyclopentanacyclononaphane-5^6-yl)piperazin-1-yl)piperidin-1-yl)-3-methylphenyl)amino)piperidine-2,6-dione] returned a DC50 of 2.14 nM and a Dmax of 81.6%. For the same compound, in test [2], the “Imax (%)” value came out at 100.4% and it took 0.7 nM to reach half-maximal inhibition (IC50). Besides, in test [3], the “Imax (%)” value was 95.3% and the midpoint of inhibition, the IC50, lay at 16.3 nM. Moreover, in test [4], it took 3.37 nM to reach half-maximal degradation (DC50) and the Dmax was determined as 77.1%.
In test [1], `Cc1cc2cc(n1)-c1c(C)nn(C)c1OC[C@H]1CC[C@H](C1)CN1/C(=N/C2=O)Nc2ccc(N3CCN(C4CCN(c5cc(F)c([C@H]6CCC(=O)NC6=O)c(F)c5)CC4)C[C@H]3CF)cc21` [Example 202, (R)-3-(2,6-difluoro-4-(4-((S)-3-(fluoromethyl)-4-((7R,7^3S,E)-1^1,1^3,2^6-trimethyl-3-oxo-5^2,5^3-dihydro-1^1H,5^1H-9-oxa-4-aza-5(2,1)-benzo[d]imidazola-2(2,4)-pyridina-1(4,5)-pyrazola-7(1,3)-cyclopentanacyclononaphane-5^6-yl)piperazin-1-yl)piperidin-1-yl)phenyl)piperidine-2,6-dione] registered a DC50 of 4.8 nM and a maximal degradation (Dmax) of 87.9%. In addition, in test [2], the “Imax (%)” value was 100.52% and the midpoint of inhibition, the IC50, lay at 2.48 nM. Also, in test [3], the “Imax (%)” value is 92% and the IC50 turned out to be 9.25 nM. For the same compound, in test [4], the DC50 worked out at 1.06 nM and the maximal degradation (Dmax) came out at 92.5%.
In test [1], `Cc1cc2cc(n1)-c1cnn(C)c1OC[C@H]1CCC(C1)CN1/C(=N/C2=O)Nc2ccc(N3CC4(CCN(C5CCN(c6cc(F)c([C@H]7CCC(=O)NC7=O)c(F)c6)CC5)CC4)C3)cc21` [Example 125, (R)-3-(4-(4-(2-((7^1R,7^3S,E)-1^1,2^6-dimethyl-3-oxo-5^2,5^3-dihydro-1^1H,5^1H-9-oxa-4-aza-5(2,1)-benzo[d]imidazola-2(2,4)-pyridina-1(4,5)-pyrazola-7(1,3)-cyclopentanacyclononaphane-5^6-yl)-2,7-diazaspiro[3.5]nonan-7-yl)piperidin-1-yl)-2,6-difluorophenyl)piperidine-2,6-dione] came in with a DC50 of 2.61 nM and a Dmax of 67.4%. In test [2], the “Imax (%)” value amounted to 101.9% and the midpoint of inhibition, the IC50, lay at 2.2 nM. Further, in test [3], the “Imax (%)” value was 98.6% and the IC50 amounted to 20.7 nM. In test [4], this compound showed a DC50 of 1.37 nM and a maximal degradation (Dmax) of 77.1%.
